Source: patent US20050107959A1, “Screening method for evaluation of bilayer-drug interaction in liposomal compositions” (priority 2003, published 2005)

Assay: Differential scanning calorimetry (VP-DSC) of DSPC liposomes (MLVs) with drugs
Format: physicochemical
Design: ΔHcal / ΔHvH / ΔHv: unit not given here
Conditions: for Interaction of the drug with the lipid bilayer (thermogram deviation from DSPC control): FIGS. 1A-1D, pH 3.6, DSPC/drug mixture vs DSPC control; for ΔHcal: calorimetric phase transition enthalpy; for ΔHcal / Cpmax / ΔTm½ / ΔT½: drug-to-lipid 1:5; for CU: cooperativity unit = ΔHvH/ΔHcal; for Tm: drug-to-lipid mole ratio 1:5; for Cpmax: heat capacity at phase transition peak; for ΔTm½ / ΔT½: transition peak width at half-height; for ΔHvH / ΔHv: van't Hoff's enthalpy calculated from DSC measurements; for Coop: cooperativity calculated from DSC measurements
Text: Differential scanning calorimetry (DSC) is a method known in the art used to measure the amount of energy (as heat) absorbed or released by a sample as it is heated, cooled, or held at a constant temperature. As used herein, the term “DSC measurements” further includes calculations using a measured feature of the sample. An exemplary method of measuring DSC utilizes a differential scanning calorimeter. Any calorimeter is suitable as long as the temperature range of the calorimeter is appropriate for the sample measurements. An exemplary calorimeter is the VP-DSC differential scanning calorimeter available from MicroCal (Northampton, Mass., USA). Typical applications using the differential scanning calorimeter include determination of melting point temperature and/or the heat of melting, measurement of the glass transition temperature, curing and crystallization studies, and identification of phase transformations.
In the embodiment using a differential scanning calorimeter for measuring the thermodynamic properties of a lipid suspension, the heat flow into a sample is usually contained in a sample cell and measured differentially, i.e. by comparing the heat flow of the sample to the heat flow into an reference cell containing an equal volume of water or the aqueous component of the sample. The heat flow may be considered as the amount of heat (q) supplied per unit of time (t), or q/t. Typically, both cells sit inside a metal jacket with a known (calibrated) heat resistance (K). The temperature of the calorimeter is raised linearly with time (scanned), where the heating rate (β=dT/dt) of the cells are kept constant and consistent with each other. […] The temperature may be controlled manually or automatically. […] Heat flows into the two cells by conduction from a heat source such as a radiator. The heat flow into the sample cell is larger due to the additional heat capacity (Cp) of the sample during the course of the phase transition. Heat capacity refers to the heat flow divided by the heating rate or Cp=q/ΔT, where q is heat, and ΔT is temperature increase. The difference in heat flow (dq/dt) induces a temperature difference (dT) between the sample and the reference cells. This temperature difference is measured using any appropriate sensor, such as a thermocouple, and a signal is generated representative of the difference.
In this figure, in a heating scan, an endothermic event results in a positive (upward) deviation from the baseline. […] The melting temperature is seen on the heat flow plot as a peak as heat is absorbed by the sample until the phase transition is completed. As will be appreciated by those of skill in the art, the main phase transition extends over a temperature range, although this peak is typically very sharp for most vesicle-forming lipids, such as DSPC, the Tm can be reported as the onset of the transition, as the midpoint of the transition, the peak temperature, or any suitable point as long as the parameters are defined. […] It will be appreciated that the exact percent of phase transition is not important as long as it is defined. Where a ratio is used, it is desirable to use the same ratio for each sample to aid in comparison between the samples. In the studies reported herein, the Tm is reported as the maximum peak of the transition range.
The latent heat of melting, or the calorimetric phase transition enthalpy, (ΔHcal) can be determined by first determining the area (A) under the peak according to the following formula: A=(heat in calories)(temperature in Kelvin)/(time in seconds)(mass in moles).

[1] = pH 3.6, scan 20° C./hour, maximum peak of main phase transition

Interaction of the drug with the lipid bilayer (thermogram deviation from DSPC control)	ΔHcal (pH 3.6)	CU (pH 3.6)	Tm (pH 3.6)	Tm [1]	Cpmax (pH 3.6)	ΔTm½ (pH 3.6)	ΔHvH (pH 3.6)	ΔHcal (pH 7.0)	Coop (pH 7.0)	Tm (pH 7.0)	Tm (pH 7.0, scan 20° C./hour)	Cpmax (pH 7.0)	ΔT½ (pH 7.0)	ΔHv (pH 7.0)	Compound
some interaction	11.81	45.9	54.7 °C	54.6 °C	7.5	1.27 °C	542.3	11.2	117	54.43 °C	54.43 C.	17.2	0.42 °C	1308	CC[C@@]1(O)C(=O)OCc2c1cc1n(c2=O)Cc2c-1nc1ccccc1c2CCNC(C)C [CKD602]
weak interaction	9.28	73.3	54.6 °C	54.5 °C	7.4	0.94 °C	680.5	9.66	149	54.5 °C	54.45 C.	16.3	0.4 °C	1437	COc1cccc2c1C(=O)c1c(O)c3c(c(O)c1C2=O)C[C@@](O)(C(=O)CO)C[C@@H]3O[C@H]1C[C@H](N)[C@H](O)[C@H](C)O1 [doxorubicin]
significant interaction	10.6	26.6	54.5 °C	54.5 °C	3.5	2.27 °C	281.7	9.94	75	54.07 °C	54.07 C.	8.67	0.77 °C	741	CC(=O)O[C@H]1C(=O)[C@@]2(C)[C@H]([C@H](OC(=O)c3ccccc3)[C@]3(O)C[C@H](OC(=O)[C@H](O)[C@@H](NC(=O)c4ccccc4)c4ccccc4)C(C)=C1C3(C)C)[C@]1(OC(C)=O)CO[C@@H]1C[C@@H]2O [paclitaxel]
some interaction	12.77	37.2	54.7 °C	54.6 °C	7.1	1.42 °C	474.9	11.65	43	53.93 °C	53.93 C.	6.81	1.38 °C	496	CC[C@]1(O)C[C@H]2CN(CCc3c([nH]c4ccccc34)[C@@](C(=O)OC)(c3cc4c(cc3OC)N(C=O)[C@H]3[C@@](O)(C(=O)OC)[C@H](OC(C)=O)[C@]5(CC)C=CCN6CC[C@]43[C@@H]65)C2)C1 [vincristine]

Compound	Interaction of the drug with the lipid bilayer (thermogram deviation from DSPC control)	ΔHcal (pH 3.6)	CU (pH 3.6)	Tm (pH 3.6)	Tm [1]	Cpmax (pH 3.6)	ΔTm½ (pH 3.6)	ΔHvH (pH 3.6)	ΔHcal (pH 7.0)	Coop (pH 7.0)	Tm (pH 7.0)	Tm (pH 7.0, scan 20° C./hour)	Cpmax (pH 7.0)	ΔT½ (pH 7.0)	ΔHv (pH 7.0)
O=C(O)c1cn(C2CC2)c2cc(N3CCNCC3)c(F)cc2c1=O [ciprofloxacin]	–	9.98	38.6	55 °C	54.9 °C	4.5	–	385.6	–	–	–	–	–	–	–
